Results taken from US20150182586A1, “DAIRY FARM TEAT DIP COMPOSITIONS AND METHODS” (Advanced BioCatalytics Corporation, priority 2013, published 2015).

Tested on: mastitis
Assay: Teat dip field test, Dairy 3 (spray, raw milk dairy, 6 week test period)
Format: in vivo
Conditions: Dairy 3, pre and post milking; chlorine dioxide on cows without previous mastitis (Pens 0, 1, 3, 5), Example 1 on cows with previous mastitis (Pen 7)
Excerpt: Dairy 3 produces raw milk and uses a spray method for applying teat dips. A key factor to note is that Example 1 was used on cows that previously had mastitis. The results of Table 5 compare using chlorine dioxide on cows that had not had mastitis, to using Example 1 on cows that were more susceptible due to previous bouts with mastitis. Once a cow developed mastitis in Dairy 3, it is not used in the production of raw milk. […] Pen No's. 0, 1, 3 and 5 used chlorine dioxide for both pre and post milking. Pen No. 7 used Example 1 for the 6 week test period. In all pens, the cows were retained in pens with saw dust in between milking cycles to reduce the chance of spreading infectious disease.
The number of cows that were […] using the composition of Example 1, for both pre and post milking, during the 6 week test period was 5.3% as shown in Table 5. Table 6 defines the number of cows in each respective pen of Table 5.

## [O][Cl+][O-] [chlorine dioxide]
  cows that developed mastitis during the 6 week test period: 5.7%
